Assay results: US20150366191A1, “ANTIMICROBIAL METHOD BY BLOCKING MANNITOL METABOLISM AND ANTIMICROBIAL COMPOSITION CONTAINING MANNITOL METABOLIC INHIBITOR” (Research & Business FOUNDATION SUNGKYUNKWAN UNIVERSITY, priority 2014, published 2015)

How the values were obtained:
[1] = test system: mannitol metabolism; assay: mannitol metabolism inhibition, phenol red colour change in mannitol medium; type: cell-based; conditions: medium containing 27 mM of mannitol and phenol red
Description: When bacteria were cultured in a medium containing 27 mM of mannitol and phenol red, the mannitol was metabolized to produce fructose and reduce pH of the medium, thereby changing a color of the phenol red to yellow. However, since the phenol red was not changed in color to keep the medium red by inhibiting the mannitol metabolism, an inhibitor showing an mannitol metabolism inhibitory effect was found using such a principle (FIG. 11A).

[2] = test system: bacteria; assay: chemical toxicity assay (growth of bacteria); type: cell-based
[3] = target: M1PDH (Staphylococcus aureus, UniProt P99140); assay: in vitro M1PDH enzymatic assay (NADH optical density at 340 nm); type: biochemical; conditions: fructose-6-phosphate and NADH, or Mtl-1-phosphate and NAD as substrates
Source text: To measure an in vitro M1PDH enzyme activity, a change in concentration of NADH according to an enzyme activity was observed through a change in optical density at 340 nm using fructose-6-phosphate and NADH, or Mtl-1-phosphate and NAD as substrates.

[4] = test system: bacteria infected into macrophages; assay: macrophage infection model, viability of bacteria in the presence of mannitol; type: cell-based, Staphylococcus aureus; conditions: compound and mannitol used together; after 18 hours of infection
Source text: In addition, to confirm an inhibitory effect in a host cell, a macrophage infection model was used.

[5] = test system: bacteria; assay: viability of bacteria by optical density at 600 nm; type: cell-based; conditions: change in concentration of the compound; OD 600 nm

SMILES	mannitol metabolism inhibitory effect [1]	inhibition of growth of bacteria [2]	inhibition of M1PDH activity [3]	SA viability in macrophages [4]	viability of bacteria [5]
Cc1nn(-c2ccccc2)c2c1C(c1ccc([N+](=O)[O-])cc1)C(C#N)=C(N)O2 (stereo not drawn) [Compound 10, 6-amino-3-methyl-4-(4-nitrophenyl)-1-phenyl-1,4-dihydropyrano[2,3-c]pyrazole-5-carbonitrile]	inhibiting only the mannitol metabolism	not inhibiting growth of bacteria	inhibited M1PDH activity		
Nc1c(-c2ccc3ccccc3n2)c2ccc([N+](=O)[O-])cc2c(=O)n1Cc1ccccc1 [Compound 27, 3-amino-2-benzyl-7-nitro-4-(2-quinolyl)-1,2-dihydroisoquinolin-1-one]	inhibiting only the mannitol metabolism	not inhibiting growth of bacteria	inhibited M1PDH activity		
COc1nc(NC(=O)NS(=O)(=O)c2ccccc2C(F)(F)F)nc(C23CC4CC(CC(C4)C2)C3)n1 [Compound 26, 2-(1-adamantyl)-4-methoxy-6-{[({[2-(trifluoromethyl)phenyl]sulfonyl}amino)carbonyl]amino}-1,3,5-triazine]	inhibiting only the mannitol metabolism	not inhibiting growth of bacteria	inhibited M1PDH activity		
Cc1c(O)c(O)cc2c1CC=C1[C@@]2(C)CC[C@@]2(C)C3C[C@](C)(C(=O)O)CC[C@]3(C)CC[C@]12C (stereo partly drawn) [Compound 5, (2R,4aS,6aS,6aS,14aS,14bR)-10,11-dihydroxy-2,4a,6a,6a,9,14a-hexamethyl-3,4,5,6,8,13,14,14b-octahydro-1H-picene-2-carboxylic acid]			inhibiting an activity of M1PDH	decrease in SA viability in a macrophage	decrease in viability
O=C(NC(=O)c1ccc(Oc2ccc(Cl)cc2)c([N+](=O)O)c1)Nc1ccccc1C(F)(F)F [Compound 31, N-[4-(4-chlorophenoxy)-3-nitrobenzoyl]-N′-[2-(trifluoromethyl)phenyl]urea]	inhibiting only the mannitol metabolism	not inhibiting growth of bacteria	inhibited M1PDH activity		
